Key:
Male Sprague-Dawley rats = assay: Example 2: dobutamine vs levosimendan for post-resuscitation myocardial failure, 8 min untreated VF + 6 min precordial compression; format: in vivo, rat
Procedure: The animals were anesthetized following intraperitoneal injection of 45 mg kg^−1 pentobarbital. […] No anesthetic agent was administrated during the 30 minute interval prior to inducing cardiac arrest.
Pressures were measured with a high sensitivity pressure transducer (Model 42584-01; Abbott Critical Care System, North Chicago, Ill.). The optimally damped frequency response of the system was 22 Hz. […] Guided by pressure monitoring, the catheter was slowly withdrawn into the right atrium. Right atrial pressure was measured with reference to the mid-chest with another high sensitivity pressure transducer (Abbott model 42584-01). This catheter also served as an injection site for the thermal tracer. A 4 F polyethylene catheter (model C-PMS401J; Cook Critical Care, Bloomington, Ind.) was advanced through the right external jugular vein into the right atrium. A precurved guide wire supplied with the catheter was then advanced through the catheter into the right ventricle until an endocardial electrogram was observed. Another 23-gauge polyethylene catheter (PE 50) was advanced through the left femoral artery into the abdominal aorta for measurement of aortic pressure with the same Abbott high sensitivity transducer and also for sampling arterial blood. […] The thermocouple provided for measurements of blood temperature and thermodilution cardiac output. […] An additional PE 50 catheter was advanced into right femoral vein for drug infusion. EKG lead II was continuously recorded.
Experimental Procedure: A total of 15 animals were investigated. The investigators were blinded to the intervention until immediately prior to inducing VF, at which time the principal investigator opened a sealed envelope for assignment to one of three groups: (1) levosimendan (2) dobutamine or (3) saline placebo. This allowed time for preparation of a fresh dilution of the selected drug. […] Current flow was continued for 3 minutes to prevent spontaneous defibrillation as previously described (Von Planta I, Weil MH. Cardiopulmonary resuscitation in the rat. J Appl Physiol. 1988;65(6):2641-2647). Ventilation was discontinued after onset of VF. Precordial compression was begun with a pneumatically driven mechanical chest compressor after 8 minutes of untreated VF and continued for 6 minutes. These methods have been extensively exercised and have been well-documented (see Von Plata I (supra)) and Sun SJ, Weil MH, Tang W, et al. Combined effects of buffer and adrenergic agent on postresuscitation myocardial function. J Pharm Exp Ther. 1999;291 :773-777). Coincident with the start of precordial compression, the animals were mechanically ventilated. Tidal volume was established at 6.5 ml per kg animal weight, a frequency of 100 min^−1, and on a FiO2 of 1.0.

male domestic pigs = assay: Example 3: dobutamine vs levosimendan in the porcine model of cardiac arrest and cardiac resuscitation; format: in vivo, pig
Procedure: Experimental Preparation: The experiments were performed in the porcine model of cardiac arrest and cardiac resuscitation which has been extensively exercised. (21,22). […] Anesthesia was initiated by intramuscular injection of ketamine (20 mg kg^−1) and was completed by ear vein injection of sodium pentobarbital (30 mg kg^−1). Additional 8 mg kg^−1 doses of sodium pentobarbital were injected to maintain anesthesia at intervals of one hour. A cuffed endotracheal tube was advanced into the trachea. Animals were mechanically ventilated with a volume of 15 mL kg^−1, peak airway flow of 40 L min^−1, and FiO2 of 0.2 with the aid of a volume-controlled ventilator (Model MA-1, Puritan-Bennett, Carlsbad, Calif.). End-tidal PCO2 (PETCO2) was monitored with an infrared analyzer (Model 01R-7101A, Nihon Kohden Corp, Tokyo, Japan). Respiratory frequency was adjusted to maintain PETCO2 between 35 and 40 mmHg. Blood temperature was maintained at 37±0.5° C. with the aid of infrared heating lamps, as required.
For the measurement of left ventricular functions, a 5.5/7.5 MHz biplane with pulse-wave Doppler transesophageal echocardiographic tranducer with 4-way flexure (Model 21363A, Hewlett-Packard Co. Medical Products Group, Andover, Mass.) was advanced from the incisor teeth into the esophagus for a distance of approximately 40 cm. For the measurement of aortic pressure, a fluid filled catheter was advanced from the surgically exposed left femoral artery into the thoracic aorta. For measurements of right atrial and pulmonary arterial pressures, blood temperature and cardiac output, a 7-French, pentalumen, thermodilution-tipped catheter was advanced from the surgically exposed left femoral vein and flow-directed into the pulmonary artery. For inducing VF, a 5-French pacing catheter (EP Techologies, Inc., Mountain View, Calif.) was advanced from the surgically exposed right cephalic vein into the right ventricle. […] This catheter was then looped laterally and advanced inferiorly for a distance of 5 cm into the great cardiac vein for sampling of coronary venous blood. The electrocardiographic (EKG) lead II was continuously recorded.
Experimental procedure: A total 15 animals were investigated. […] Cardiac arrest was induced with 1 to 2 mA AC delivered to the endocardium of the right ventricle. Mechanical ventilation was discontinued after onset of VF. At the end of a 7-minute interval of untreated VF, precordial compression (PC) was started with a pneumatic piston-driven chest compressor (Thumper, Model 1000, Michigan Instruments, Grand Rapids, Mich.). Coincident with the start of PC, the animal was mechanically ventilated with a tidal volume of […] and FiO2 of 1.0. […] The compression force was adjusted to decrease the anterior-posterior diameter of the chest by 25%. After 5 minutes of PC, defibrillation was attempted with a 150 J biphasic waveform shock delivered between the right infraclavicular area and the cardiac apex. If an organized cardiac rhythm with mean aortic pressure of more than 60 mm Hg persisted for an interval of 5 minutes or more, the animal was regarded as successfully resuscitated. At 10 minutes after restoration of spontaneous circulation (ROSC), one of the three interventions was begun. […] Levosimendan diluted in physiological salt solution was administered in a loading dose of 20 μg kg^−1, infused over 10 minutes, followed by infusion of 0.4 μg kg^−1 min^−1 also in physiologic salt solution for a total duration of 230 minutes.

rats = assay: Example 1: feasibility studies and dose titration of levosimendan; format: in vivo, rat
[1] = 4-hour interval after treatment
[2] = 12 μg levosimendan followed by 0.3 μg/kg/min, comparable to 3 μg/kg/min dobutamine

C[C@@H]1CC(=O)NN=C1c1ccc(NN=C(C#N)C#N)cc1 [Levosimendan]
mean arterial pressure (MAP) (Male Sprague-Dawley rats; between the three groups): no significant differences | duration of survival (Male Sprague-Dawley rats; observed over 72 hours, least with saline placebo (FIG. 15)): maximal | left ventricular diastolic (filling) pressures (Male Sprague-Dawley rats; post-resuscitation): significantly lesser increases | cardiac index (Male Sprague-Dawley rats; post-resuscitation (FIG. 13)): significant increases in cardiac index | dP/dt40 (Male Sprague-Dawley rats; vs saline placebo (FIG. 14)): Significantly greater | −dP/dt (Male Sprague-Dawley rats; vs saline placebo (FIG. 14)): Significantly greater | mean pulmonary artery pressure (male domestic pigs; [1]): Significantly lower | right atrial (filling) pressure (male domestic pigs; [1]): Significantly lower | heart rate (male domestic pigs; among the three groups): did not differ | neurological alertness scores (male domestic pigs; at 24 hours): significantly better | arterial pressure (male domestic pigs; between levosimendan and dobutamine): no differences in arterial pressure | coronary arterial-venous oxygen differences (male domestic pigs; in comparison to dobutamine (FIG. 19)): numerically smaller | EF (male domestic pigs; in comparison to dobutamine, persisted at 72 hours (FIG. 17)): significantly greater | FAC (male domestic pigs; in comparison to dobutamine, persisted at 72 hours (FIG. 18)): significantly greater | cardiac output (male domestic pigs; vs saline placebo (FIG. 16)): Significantly greater cardiac output | arterial pressure (rats; [2]): declines in arterial pressure | cardiac output (rats; [2]): increases in cardiac output | arterial pressure (rats; higher doses of levosimendan): decreases in arterial pressure | cardiac output (rats; higher doses of levosimendan): additional increases in cardiac output | heart rate (rats; higher doses of levosimendan): increases in heart rate
